These are literature values, as cited in patent US10154967B2, “2,2′,6,6′-tetraisopropyl-4,4′-biphenol lipid microsphere preparations and preparation methods therefor” (XI'AN LIBANG PHARMACEUTICAL CO., LTD, priority 2012, dated 2018).

The test system of data set [1] is GABA receptors.
Data set [2] concerns GABA receptors. This is another data set of the same source.
The test system of another data set is NMDA receptors. Conditions: regulating the Ca2+ influx in Ca2+ channels.
For data set [3], the system named is excitotoxic effect induced by kainate (kainic acid).
For data set [4] the following is noted: compared with propofol.

Take `CC(C)c1cc(-c2cc(C(C)C)c(O)c(C(C)C)c2)cc(C(C)C)c1O` [biphenol]: the lipid solubility entry is “highly lipid soluble” and the solubility in water result is recorded as “difficult to dissolve in water”. Moreover, the “affinity towards GABA receptors” value in the data set on GABA receptors [1] was “strong affinity”. Besides, in the data set on GABA receptors [2], the “action at GABA receptors” value is “agonist”. Also, the “action at NMDA receptors” value in the data set with NMDA receptors is recorded as “antagonist”. Moreover, in data set [3], the “protection against the excitotoxic effect induced by kainate” value is “protection”. Moreover, the antioxidant strength entry in data set [4] is listed as “significantly stronger antioxidant than propofol”. The loss of consciousness entry with patients is recorded as “does not cause the patients to lose consciousness”.
